From PubChem BioAssay (NCI)
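Cells were grown in 96-well plates and exposed to each compound for 48 hours at five concentrations; endpoints were interpolated linearly between bracketing concentrations, or set to the highest concentration if not reached. The concentration for full growth arrest is given as TGI.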 *1 amine or outer side, *2 acyl side, *3 side chain or, on linkers, in order; H or OH if unused. Where a SMILES comes first, the peptide text is derived from it. [ ]: non-standard residue; d: D form. The star is where a group is joined. Phe(4-NO2) = N[CH](Cc1ccc([N+](=O)[O-])cc1)C(=O)O; γGlu = O=C(O)[CH](CCC(=O)[*:2])N[*:1]; Boc = CC(C)(C)OC(=O)*; NHOH = ON*

Key:
Assay in all cases: NCI tumour cell line growth inhibition, 48 h
RXF 393 renal = system: RXF 393 renal
SF-268 CNS = system: SF-268 CNS
U251 CNS = system: U251 CNS
PC-3 prostate = system: PC-3 prostate
IGROV1 ovarian = system: IGROV1 ovarian
MDA-MB-435 = system: MDA-MB-435
SK-OV-3 ovarian = system: SK-OV-3 ovarian
KM12 colon = system: KM12 colon
SNB-19 CNS = system: SNB-19 CNS
A498 renal = system: A498 renal
NCI-H522 lung = system: NCI-H522 lung
M14 melanoma = system: M14 melanoma
MOLT-4 leukemia = system: MOLT-4 leukemia
CCRF-CEM leukemia = system: CCRF-CEM leukemia
DU-145 prostate = system: DU-145 prostate
UO-31 renal = system: UO-31 renal
SF-295 CNS = system: SF-295 CNS
OVCAR-8 ovarian = system: OVCAR-8 ovarian
NCI-H23 lung = system: NCI-H23 lung
SN12C renal = system: SN12C renal

Row | SMILES | TGI (RXF 393 renal) [µM] | TGI (SF-268 CNS) [µM] | TGI (U251 CNS) [µM] | TGI (PC-3 prostate) [µM] | TGI (IGROV1 ovarian) [µM] | TGI (MDA-MB-435) [µM] | TGI (SK-OV-3 ovarian) [µM] | TGI (KM12 colon) [µM] | TGI (SNB-19 CNS) [µM] | TGI (A498 renal) [µM] | TGI (NCI-H522 lung) [µM] | TGI (M14 melanoma) [µM] | TGI (MOLT-4 leukemia) [µM] | TGI (CCRF-CEM leukemia) [µM] | TGI (DU-145 prostate) [µM] | TGI (UO-31 renal) [µM] | TGI (SF-295 CNS) [µM] | TGI (OVCAR-8 ovarian) [µM] | TGI (NCI-H23 lung) [µM] | TGI (SN12C renal) [µM]
1 | CCOC(=O)CC(=O)CSc1c(-c2ccccc2)c(=O)n(-c2ccccc2)c(=S)n1-c1ccccc1 | > 100 | > 100 | > 100 | > 100 | > 100 | > 100 | > 100 | > 100 | > 100 | > 100 | > 100 | > 100 | > 100 | > 100 | > 100 | > 100 | > 100 | > 100 | > 100 | > 100
2 | CCOC(=O)C(NC(=O)c1ccccc1)(Nc1ccc(S(=O)(=O)Nc2cc(C)nc(C)n2)cc1)C(F)(F)F (stereo not drawn) | > 100 | > 100 | > 100 | > 100 | > 100 | > 100 | – | > 100 | > 100 | > 100 | > 100 | > 100 | > 100 | > 100 | > 100 | > 100 | > 100 | > 100 | > 100 | > 100
3 | CCc1ccc(/C=C/C(=O)C2CN(CC)CCC2(O)/C=C/c2ccc(CC)cc2)cc1 (stereo not drawn) | 8.43 | 12 | 3.41 | 12.4 | 4.35 | 4.07 | 25 | 3.5 | 23.3 | 23.1 | 4.79 | 7.11 | 6.03 | 5.16 | 21.6 | 11.6 | 8.9 | 11.6 | 11.5 | 14.1
4 | CC1OC(OCC2OC(Oc3ccc(C4CC(=O)c5c(O)cc(O)cc5O4)cc3O)C(O)C(O)C2O)C(O)C(O)C1O (stereo not drawn) | > 100 | > 100 | > 100 | > 100 | > 100 | > 100 | > 100 | > 100 | > 100 | > 100 | > 100 | > 100 | > 100 | > 100 | > 100 | > 100 | > 100 | > 100 | > 100 | > 100
5 | Nc1c(Br)cc(-c2nc3ccccc3s2)cc1Br | > 100 | > 100 | > 100 | > 100 | > 100 | > 100 | > 100 | > 100 | > 100 | > 100 | > 100 | > 100 | > 100 | > 100 | > 100 | > 100 | > 100 | > 100 | – | > 100
6 | Cc1c/c(=N/NC(=O)c2ccncc2)n2nc(N)sc2n1 | > 100 | – | > 100 | > 100 | > 100 | > 100 | > 100 | > 100 | > 100 | > 100 | > 100 | > 100 | > 100 | > 100 | > 100 | > 100 | > 100 | > 100 | > 100 | > 100
7 | CCCCCC(=Nc1n[nH]nc1C(N)=O)OCC | > 100 | > 100 | > 100 | > 100 | > 100 | > 100 | > 100 | > 100 | > 100 | > 100 | > 100 | > 100 | > 100 | > 100 | > 100 | > 100 | > 100 | > 100 | > 100 | > 100
8 | C=C(CO)[C@H]1Oc2ccc(C(C)=O)cc2[C@@H]1O | > 100 | > 100 | > 100 | > 100 | > 100 | > 100 | > 100 | > 100 | > 100 | > 100 | > 100 | > 100 | > 100 | > 100 | > 100 | > 100 | > 100 | > 100 | > 100 | > 100
9 | COC(=O)CCC(NC(=O)OC(C)(C)C)C(=O)NC(Cc1ccc([N+](=O)[O-])cc1)C(=O)NC(CCC(=O)OC)C(=O)OC (stereo not drawn) (Boc-Glu(OMe)-[Phe(4-NO2)]-Glu(OMe)-OMe; configuration not given here) | > 100 | > 100 | – | > 100 | > 100 | > 100 | > 100 | > 100 | > 100 | > 100 | > 100 | > 100 | 49.9 | 36.8 | > 100 | > 100 | > 100 | > 100 | > 100 | > 100
10 | COC(=O)N/N=C(/c1nc2ccc([N+](=O)[O-])cc2[nH]c1=O)C(O)c1ccc(OC)c(OC)c1 (stereo not drawn) | > 100 | > 100 | > 100 | > 100 | > 100 | > 100 | > 100 | > 100 | > 100 | > 100 | > 100 | > 100 | > 100 | > 100 | > 100 | > 100 | > 100 | > 100 | > 100 | > 100
11 | COc1ccc2c(c1)CCc1c-2n(CCN2CCOCC2)c2ccc(OC)cc12 | > 100 | > 100 | > 100 | > 100 | > 100 | > 100 | > 100 | > 100 | – | > 100 | > 100 | > 100 | 41.1 | 53.1 | > 100 | > 100 | > 100 | > 100 | > 100 | > 100
12 | CSc1ccc(/C=C2\N=C(c3ccccc3)N(/N=C3\C(=O)Nc4ccccc43)C2=O)cc1 | > 100 | > 100 | > 100 | > 100 | > 100 | > 100 | > 100 | > 100 | > 100 | > 100 | > 100 | > 100 | > 100 | > 100 | > 100 | > 100 | > 100 | > 100 | > 100 | > 100
13 | O=c1c2ccccc2nc2sc(/N=C/C=C/c3ccccc3)nn12 | > 100 | > 100 | > 100 | > 100 | > 100 | > 100 | > 100 | > 100 | > 100 | > 100 | > 100 | > 100 | > 100 | > 100 | > 100 | > 100 | > 100 | > 100 | > 100 | > 100
14 | CCOC(=O)CNC(=O)C(CCC(=O)NO)NC(=O)CCC(N)C(=O)O (stereo not drawn) (γGlu-Glu(NHOH)-Gly-OEt; configuration not given here) | > 100 | > 100 | > 100 | > 100 | > 100 | > 100 | > 100 | > 100 | > 100 | > 100 | > 100 | > 100 | > 100 | > 100 | > 100 | > 100 | > 100 | > 100 | > 100 | > 100
15 | COC(=O)N/N=C(\c1ccccc1)c1ccc(OC)cc1 | > 100 | > 100 | > 100 | > 100 | > 100 | > 100 | > 100 | > 100 | > 100 | > 100 | > 100 | > 100 | > 100 | > 100 | > 100 | > 100 | – | > 100 | > 100 | > 100
16 | CC(C)(C)OC(=O)NC(CS(=O)(=O)O)C(=O)O (stereo not drawn) | > 100 | > 100 | > 100 | > 100 | > 100 | > 100 | > 100 | > 100 | > 100 | > 100 | > 100 | > 100 | > 100 | > 100 | > 100 | > 100 | > 100 | > 100 | > 100 | > 100
17 | CNc1ncnc2c1cnn2CCCCO | > 100 | > 100 | > 100 | > 100 | > 100 | > 100 | > 100 | – | > 100 | > 100 | > 100 | > 100 | > 100 | > 100 | > 100 | > 100 | > 100 | – | > 100 | > 100
18 | O=C(O)c1nc2ccccc2nc1NCc1ccc(F)cc1 | > 100 | > 100 | > 100 | > 100 | > 100 | > 100 | – | > 100 | > 100 | > 100 | > 100 | > 100 | > 100 | > 100 | > 100 | > 100 | > 100 | > 100 | > 100 | > 100
19 | N#CCC1(c2ccc(Cl)cc2)NC(=O)c2ccccc21 (stereo not drawn) | > 100 | > 100 | > 100 | > 100 | > 100 | > 100 | > 100 | > 100 | > 100 | > 100 | > 100 | > 100 | > 100 | > 100 | > 100 | > 100 | > 100 | > 100 | > 100 | > 100
20 | O=C1CSC(c2ccccc2O)N1c1nc2cc3sc(N4C(=O)CSC4c4ccccc4O)nc3cc2s1 (stereo not drawn) | > 100 | > 100 | > 100 | > 100 | > 100 | > 100 | > 100 | > 100 | > 100 | > 100 | > 100 | > 100 | > 100 | > 100 | > 100 | > 100 | > 100 | > 100 | > 100 | > 100
21 | O=C(NNC(=O)c1ccccc1O)c1ccco1 | > 100 | > 100 | > 100 | > 100 | > 100 | > 100 | > 100 | > 100 | > 100 | > 100 | > 100 | > 100 | > 100 | > 100 | > 100 | > 100 | > 100 | > 100 | – | > 100
22 | Cc1ccc(S(=O)(=O)Oc2nc3nc4ccccc4nc3nc2OS(=O)(=O)c2ccc(C)cc2)cc1 | > 100 | > 100 | > 100 | > 100 | > 100 | > 100 | > 100 | > 100 | > 100 | > 100 | > 100 | > 100 | – | > 100 | > 100 | > 100 | > 100 | > 100 | > 100 | > 100
23 | COc1ccc(C(=C2C(=O)N(c3ccccc3)C(=O)C2=C(C)C)c2ccc(OC)cc2)cc1 | 5.9 | > 34.3 | > 46.1 | > 40.1 | > 36.6 | 4.9 | > 56.1 | > 54.4 | > 56.2 | 16 | 15.7 | 13.5 | > 39.7 | – | > 58 | > 31 | > 49 | > 32.1 | > 39.4 | > 38.2
